Several values for one entry are separate records, joined by “and”; a condition that tells them apart may be missing. Identical values can stand only once. Like-named read-outs stand apart in the source and are kept apart here.
How the values were obtained:
[1] = late stages of liver disease; cited from earlier work
[2] = tested on: MML cells (prostate cancer) and breast cancer cells
breast cancer cells = test: Human breast cancer xenograft growth in athymic nude mice; type: in vivo; conditions: TM 1 mg/day; TP-TM 1 mg/day and 1.5 mg/day; p<0.01 vs control
Protocol: FIG. 5. […] 10^6 breast cancer cells were injected in the mammary fat pad of 4 groups of athymic, nude mice (5 mice per group). Control mice received no treatment.
In this study, 10^6 breast cancer cells were injected in the mammary fat pad of 4 groups of athymic, nude mice (5 mice per group). Control mice received no treatment.

[3] = tested on: SUM149 breast cancer cells; test: SUM149 orthotopic tumors in nude mice; type: in vivo
Text: In this study, the ability of tetrathiomolybdate (TM) to abrogate or retard the growth of tumors in the mammary pads of nude mice after orthotropic injection of human breast cancer cells was studied. The highly angiogenic inflammatory breast cancer cell line called SUM149 was selected for this study. Given its high propensity to form palpable tumors within 2 weeks of injection into the mammary of 80-100% of the nude mice injected, this cell line posed a stringent test of the ability of TM to impair tumor progression.
Three groups of 5 nude mice each were set up in separate cages. Groups 2 and 3 received TM in the drinking water to average an intake of 1.2 mg/day/mouse, starting at day-7. Groups 1, 2, and 3 were injected on day 0 with 10^6 SUM149 breast cancer cells in the second thoracic mammary fat pad. On day 34, as no palpable tumors were noticeable in any of the mice in the treatment groups, TM was skipped on groups 2 and 3, and then TM was restarted on group 2at a dose of 0.6 mg/day/mouse, while TM was resumed at full dose (1.2 mg/mouse/day) in group 3.
The developing tumors were measured approximately twice weekly, and the average of the product of the bi-dimensional perpendicular diameters for each group versus time was determined. The tumors in the control group grew relatively rapidly and all animals developed tumors. […] This dose decreases copper to approximately 10-20% of baseline levels. It is this degree of copper deficiency, well tolerated in both mice and humans, which appears to be required to inhibit tumor angiogenesis.

[4] = Storage stability of TM (bulk and capsules); type: physicochemical; conditions: room temperature
Text: TM and salts of TM are available; one of the preferred salts of TM is the ammonium salt. […] TM purchased from Aldrich Chemical Company (available in one kilogram bulk lots) is certified pure for human use. The bulk drug should be stored in the absence of oxygen, or the oxygen will gradually exchange with the sulfur, rendering the drug ineffective over time. The bulk drug is therefore stored under argon.
TM was purchased in bulk lots suitable for human administration (Aldrich Chemical Company, Milwaukee, Wis.). […] At the time a prescription was written, the appropriate dose of TM was placed in gelatin capsules. […] Thus, TM was dispensed to each patient in eight-week installments throughout the trial.

[5] = Stability in moist heated air; type: physicochemical
mammary tumors = test: Mammary tumor development in HER2-neu transgenic mice
[6] = cited from earlier work
[7] = cited from earlier work; remark: listed apart in the source
[8] = IV 99Mo labeled TM, sheep; cited from earlier work
[9] = Open label study of TM for initial treatment of Wilson's disease; type: in vivo, human
Text: The inventors have carried out an open label study of the use of TM for initial treatment of neurologically presenting Wilson's disease patients for the past several years. The inventors have developed both a spectrophotometric and bioassay for the activity of the drug, to evaluate stability, and assure potency of the drug being administered (Brewer et al., 1991a; Brewer et al., 1994b). The drug slowly loses potency when exposed to air.
The inventors have now treated a total of 51 Wilson's disease patients with TM, all of whom presented with neurological or psychiatric disease, in an open label study. These patients were all diagnosed by standard criteria. […] Some of them were treated briefly with other agents prior to this trial. Two patients had psychiatric but not neurological symptoms.
With three exceptions in the earliest part of the study, all patients received a dose of 20 mg tid with meals, or qid with three meals and a snack. Thus, the only difference between a patient receiving 120 mg and 140 mg total dose is that the former was receiving 20 mg tid, or 60 mg, with meals, and the latter was receiving 20 mg qid, or 80 mg with meals plus a snack. The rest of the total daily dose was divided up into three equal doses and given between meals.

[10] = cited from earlier work; remark: listed apart in the source
[11] = ½ dose of TM (0.6 mg/day/mouse)
[12] = among the seven patients with anemia

tetrathiomolybdate [TM]
efficacy in LEC rats [1]: very effective | effective decoppering serum concentration relative to threshold lethal level for cells (fold lower) [2]: 100-500 fold | tumor growth curves versus control animals (breast cancer cells): effectively inhibiting tumor growth | palpable tumors in treatment groups ([3]; TM 1.2 mg/day/mouse in drinking water from day -7): no tumors were palpable until TM was skipped on day 34 | copper level ([3]; full dose TM 1.2 mg/day/mouse): 10-20 % of baseline levels | tumor growth after day 34 ([3]; full dose TM 1.2 mg/day/mouse): only very small tumors have grown | decrease of copper levels [3, 11]: 50% | tumor growth after day 34 [3, 11]: the tumors grew more rapidly | stability in capsules [4]: stable in capsules for several months at room temperature | increase of loss of activity in moist heated air over ambient conditions [5]: about 10 fold | TM-treated mice developing clinically overt tumors (mammary tumors; 0.5-1.0 mg TM by gavage daily from 100 days of age, median follow-up 260 days): none | ceruloplasmin (Cp) in treatment group (mammary tumors; 0.5-1.0 mg TM daily): below 40 % of baseline | outcome at higher doses (mammary tumors; 1.25-1.5 mg TM): died after 1-3 weeks of therapy | shrinkage of well established tumors (>1.5 cm) (mammary tumors; 3 control animals treated, 2/3 cases): 25% and 50% | vascularization of micro-tumors in mammary glands (mammary tumors; TM-treated mice, microscopic analyses): none of the micro-tumors of the treated mice were vascularized | maximum tolerated dose (MTD), prolonged treatment (mammary tumors; adult mice, average weight 32 grams): 1.0 mg/day | anemia (mammary tumors; copper (Cp) decreased to below 40% of baseline): no anemia observed | clinically overt toxicity (mammary tumors; copper levels decreased to 10% of baseline): no clinically overt toxicity | time to clinically overt mammary tumors after release from treatment (mammary tumors; cross-over group previously disease-free): ≤ 18 days | anemia ([6]; 18 mg of TM): the anemia was severe | effects in rats ([6]; approximately 6 mg of TM per kilogram of diet): substantial effects on copper | anemia ([6]; approximately 12 mg of TM): Mild anemia was present | skeletal lesions ([6]; approximately 12 mg of TM): one of six animals | prevention of toxic effects by copper ([6]; up to 36 mg of TM per kilogram of diet): could be prevented by oral supplementation with copper | tolerance of TM injections ([7]; IV 50 or 100 mg 2x weekly, copper loaded sheep): tolerated up to 22 injections of TM without clinical problems | adverse side effects in commercial sheep flocks ([7]; over 400 animals treated): no adverse side effects | speed of reducing Cp level to <20% (metastatic solid tumors; 20 mg tid with meals plus single 60 mg between meals vs 20 mg tid with and 20 mg tid between meals): more rapidly | mean time to 50% reduction of Cp (metastatic solid tumors; 90, 105, 120 mg/day): 30 days | median time to Cp 50% of baseline (metastatic solid tumors; 90, 105, 120 mg/day): 28 days | level III dose outcome (metastatic solid tumors; TM 120 mg/day): effective in reaching the target Cp, without added toxicity | time for further reduction to Cp levels of 5-10 mg/dl (metastatic solid tumors; after reaching 50% of baseline): 20 to 30 days | lung lesions in two patients with stable disease (metastatic solid tumors; at target Cp for 120 and 49 days): complete disappearance of some lung lesions and decrease in size of other lung lesions | additional toxicities with long-term maintenance (metastatic solid tumors; human, in vivo): No additional toxicities of any type were observed | burping (metastatic solid tumors; human, in vivo): Several patients experienced transient, occasional sulphur-smelling burping | mild (greater than 80% of baseline Hct) reversible anemia (metastatic solid tumors; human, in vivo): 4 patients | only drug-related toxicity observed (metastatic solid tumors; human, in vivo): mild anemia in one patient | time for hematocrit to recover after stopping the drug (metastatic solid tumors; human, in vivo): 5 to 7 days | time to rapid rise in Cp after TM discontinued (metastatic solid tumors; human, in vivo): ≤ 48 h | toxicities at Cp levels at or above 20% of baseline (metastatic solid tumors; human, in vivo): no cardiac, pulmonary, GI, renal, hepatic, hematologic, infectious, skin, mucosal, or neurologic toxicities observed | treated patients maintained at target Cp for more than 90 days (metastatic solid tumors; human, in vivo): 39% | patients with serum Cp lowered to 50% of baseline (metastatic solid tumors; initial TM 90 to 120 mg per day): 17 out of 18 patients | duration of stable disease on TM treatment (metastatic solid tumors; one patient, previously untreated metastatic breast cancer): over 6 months | decrease in blood flow to tumor mass (3D-ultrasound) (metastatic solid tumors; rib metastasis of renal cell carcinoma, approximately 8 weeks after target copper deficiency): 4.4 fold | excreted in feces [8]: 5% | excreted in urine [8]: over 90% | t1/2 of slow plasma disappearance [8]: about 40 h | cases of reversible anemia ([9]; 45 patients, eight weeks TM as initial therapy): 11.1% | patients with reversible anemia/bone marrow depression ([9]; 51 patients treated): seven | patients with reduction in platelet count [9, 12]: Three | patients with reduction in white blood cell count [9, 12]: four | overtreatment ([9]; dose of 180 mg/day or over): 6 of 37 patients | overtreatment ([9]; dose of 150 or lower): 1 of 13 patients | time to close the plasma copper-molybdenum gap (free copper to zero) ([9]; first patient): 16 days | patients with elevation of transaminase values (AST, ALT) ([9]; in vivo): four | quantitative speech exam scores ([9]; initial 8 weeks of TM therapy): No patient shows significant (more than 2.0 units) reduction in scores | average fall in hemoglobin ([9]; the seven patients with anemia): 3.4 g % | patients with significant neurological worsening (change of more than 5 units) ([9]; weeks of TM administration): 4 % of the sample | potency retained in gelatin capsules ([10]; eight weeks): at least 90% | stability of bulk drug ([10]; under argon): stable for several years under argon

Source: patent publication US7888389B2 (The Regents of the University of Michigan, priority 2002, dated 2011)
